Reference: patent US8288350B2, “Methods to prevent and treat diseases” (Nour Heart, Inc., priority 2006, dated 2012)
Where no end group is shown, it is not given here. The star is where a group is joined. Boc = CC(C)(C)OC(=O)*

What was measured:
[1] = system: Neutrophils isolated from human peripheral blood; experiment: Inhibition of neutrophil chemotaxis induced by human vascular Nourin (vein graft samples, 96 well chemotaxis plates); assay type: cell-based
Experimental: Isolated Human Vein Grafts: Patients' leg veins were removed from five patients scheduled for coronary bypass surgery. The samples for each patient were distended for 10 minutes at 300 mm Hg pressure and incubated in buffer (HBSS) for 1 hour at room temperature. Undistended vein grafts were incubated at room temperature in HBSS for one hour and then the solutions were tested for chemotactic activity.
Chemotaxis Assay: The chemotactic activity of vein samples was tested using standard chemotaxis assay. Briefly, neutrophils were isolated from human peripheral blood and labeled by fluorescence dye. These labeled neutrophils were used as migratory cells and placed on the top chamber of the 96 well chemotaxis plates. The vein samples were placed at the bottom wells of the plate. A filter was placed in between and the ability of the tested samples to stimulate the migration of neutrophils across the membrane was determined by incubating the chamber at 37° C. for 1 hour. The standard synthetic chemoattractant f-Met-Leu-Phe (f-MLF (SEQ ID NO:11)) was used as the positive control for 100% chemotactic response. Hank's Balanced Salt Solution (HBSS) was the negative control for random migration. Neutrophil migration was reported as the number of labeled neutrophils detected at the bottom wells which crossed the membrane filter in response to the test solutions. The samples were tested in triplicate wells.
Inhibition of the human vascular Nourin by the N-formylmethionyl blocker t-Boc-FLFLF (SEQ ID NO:2): t-Boc FLFLF (SEQ ID NO:2) is a FPR antagonist and was tested for its ability to inhibit Nourin activity on neutrophil migration. In the chemotaxis chamber, t-Boc-FLFLF (SEQ ID NO:2) was used at a final concentrations of 10^−5 Molar. […] In one human sample, t-Boc-FLFLF (SEQ ID NO:2) inhibited 100% of neutrophil chemotaxis. Similarly, the FPR antagonist Spinorphin inhibited neutrophil chemotaxis stimulated by Nourin.

[2] = Global warm ischemia by aortic cross clamping, then working Longerdorff heart; assay type: in vivo, dog
Experimental: Cyclocreatine (25 gm in 500 ml saline) was injected intravenously into a dog one hour before the induction of global warm ischemia. Control dogs received saline. All dogs underwent one hour of global warm ischemia by cross clamping the aorta. After the one hour of warm ischemia, hearts were removed, perfused for an additional four hours with buffer containing 1% cyclocreatine ([…]), and then placed on a working Longerdorff to measure cardiac function. After the initiation of the aortic cross clamping, cyclocreatine-treated heart continued to beat for 9 minutes during warm ischemia, while the control heart stopped beating after 2 minutes. Similarly, myocardial pH was 7.04 in the cyclocreatine-treated heart compared to pH 6.00 in control heart when measured 6 minutes after the induction of warm ischemia.
The results indicated a reduction of the caspase enzyme activities in the cyclocreatine dog (26-76% reduction of baseline) compared to the significant stimulation observed in control dogs (1.44-3.86-fold increase over baseline). […] Cyclocreatine treatment may stimulate the anti-apoptotic members of the family such as Bcl-2 and/or Bcl-x, or inhibit the pro-apoptotic members of the family such as Bak, Bax, and Bim.

[3] = system: Neutrophils isolated from human peripheral blood; experiment: Inhibition of fMLF chemotactic activity (chemotaxis chamber); assay type: cell-based; details: FIG. 3
[4] = system: Neutrophils isolated from human peripheral blood; experiment: Inhibition of neutrophil chemotaxis induced by chemotactic factor released by H1N1-infected MDCK cells (modified chemotaxis chamber); assay type: cell-based; details: concentrations about 10^-5 to 10^-3 Molar; supernatant of MDCK cells incubated with H1N1 for 6 hours

LVVYPWT [Spinorphin, Leu-Val-Val-Tyr-Pro-Trp-Thr]
inhibition of neutrophil chemotaxis stimulated by Nourin [1]: inhibited

NC1=NCCN1CC(=O)O [cyclocreatine]
myocardial pH ([2]; 6 minutes after induction of warm ischemia, control pH 6.00): 7.04
reduction of caspase enzyme activities ([2]; control dogs 1.44-3.86-fold increase over baseline): 26-76 % reduction of baseline
time heart continued to beat during warm ischemia after aortic cross clamping ([2]; dog, 25 gm in 500 ml saline i.v. one hour before ischemia, control 2 minutes): 9 min
TNF-α released by monocytes ([2]; dog, in vivo): reduced
inflammation/pain and injury induced by inflammation ([2]; dog, in vivo): reduced
level of the cardiac-derived leukocyte factor ([2]; dog, in vivo): reduced
contractility on the Longerdorff working heart ([2]; one-hour analysis, control strong only first 15-20 minutes): strong contractility throughout the one-hour analysis
apoptosis as measured by caspase enzyme activity ([2]; treated heart vs controls): significant reduction
myocardial ATP compared to controls ([2]; treated heart vs controls): three-fold increase
intracellular edema as measured by MRI ([2]; vs control): reduced
myocardial tissue lactic acidosis (per MRI) ([2]; vs control): reduced
level of cell injury marker malondialdehyde ([2]; vs controls): reduced

t-Boc-Phe-Leu-Phe-Leu-Phe (Boc-FLFLF; not fully specified (residues 2, 4); printed as t-Boc-Phe-Leu-Phe-Leu-Phe)
inhibition of fMLF chemotactic activity [3]: inhibits
inhibition of neutrophil chemotaxis induced by vascular Nourin ([1]; 10^-5 M final concentration): up to 60%
inhibition of neutrophil chemotaxis induced by vascular Nourin, one human sample ([1]; one human sample): 100%
inhibition of neutrophil chemotaxis induced by viral chemotactic factor [4]: 30%-100%
